Assays:
Type in all cases: cell-based
Candida albicans = experiment: Coated cap luer against Candida albicans seeded within the catheter's luer region; details: 50 μg coated on the cap's luer portion
Protocol: For instance, if using a chlorhexidine based antimicrobial, approximately 50 μg of chlorhexidine acetate can be effective in some embodiments. […] The caps containing the coated luers killed all of the Candida albicans that were seeded within the catheter's luer region. Within the same experiment, the Candida albicans remained viable when uncoated caps were used. Greater than 5 μg chlorhexidine acetate on the luer region is effective; 10 μg to 300 μg is preferred, and 30 μg to 80 μg is most preferred.

[1] = tested on: infection-causing organisms; experiment: Laboratory testing of the coated elongate member in standard hemodialysis catheters; details: 250 μg on the elongate member; catheters containing saline, heparin-saline, or saline with 4% sodium citrate
Protocol: The safety profile of the invention can be enhanced by limiting the amount of chlorhexidine acetate available to enter the bloodstream, the preferred maximum amount of chlorhexidine acetate on the elongate member is 2000 μg, more preferred is 1000 μg, and most preferred is 350 μg.

[2] = tested on: Candida albicans, Pseudomonas aeruginosa, Staphylococcus aureus, and Escherichia coli; experiment: Laboratory testing of elongate members in catheters under a variety of lock solutions and challenge organisms; details: lock solutions saline, heparinized-saline, 4% sodium citrate solution, human serum
Protocol: The minimum amount of antimicrobial agent on elongate member 33 was determined through laboratory testing in which elongate members were placed into catheters under a variety of lock solutions and challenge organisms. The type of lock solution was varied among saline, heparinized-saline, 4% sodium citrate solution, and human serum. A variety of challenge organisms were used, such as Candida albicans, Pseudomonas aeruginosa, Staphylococcus aureus, and Escherichia coli.

Question: `CC(=O)O.CC(=O)O.NC(=N\CCCCCC/N=C(N)/N=C(\N)Nc1ccc(Cl)cc1)/N=C(\N)Nc1ccc(Cl)cc1` [chlorhexidine acetate] was tested. Which “kill of Candida albicans seeded within the catheter's luer region” value (Candida albicans) did it give?
Answer: The value was “killed all”.

Question: And the “reduction in number of infection-causing organisms” value [1]?
Answer: The value was > 10,000 ×.

Question: What about the “organisms killed in the catheter versus amount on the elongate member” value [2] of the same compound?
Answer: Its value is “dose response”.
